Results taken from paper PMC5717258, “Bioaccumulation of pharmaceuticals and personal care product chemicals in fish exposed to wastewater effluent in an urban wetland” (Scientific Reports, 2017).

Key:
in vivo = details: for concentration at 21 days: goldfish (Carassius auratus)
How it was run: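 Pooled caged-goldfish plasma, wild-fish plasma (2.3–2.5 g) and water samples were spiked with isotope-labelled surrogates, then extracted (acetonitrile sonication for plasma; pH-adjusted water) and cleaned up by HLB SPE. PPCPs were quantified by LC/ESI-MS/MS using isotope dilution. Non-detects were set to ½ DL when the analyte was detected in ≥2 samples.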

[1] = Plasma bioaccumulation factor (BAFP), goldfish; assay type: in vivo, goldfish (Carassius auratus); details: CPM2; water sample of August 2012
How it was run: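 BAFP in goldfish was calculated as plasma concentration (ng/g × 1000) divided by water concentration (ng/L).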

[2] = cited from earlier work
[3] = design: method as in Brown et al. 11; details: ref Brown et al. 11; cited from earlier work
[4] = ref Meador et al. 18; cited from earlier work
[5] = human; converted from µg/mL; ref Schulz et al.[56]; cited from earlier work
[6] = Jordan Harbour brown bullhead, wet weight
How it was run: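 Pooled caged-fish and wild carp plasma and water samples; plasma spiked with 13C/deuterated surrogate standards, sonicated in acetonitrile, diluted, cleaned by Oasis HLB SPE; water adjusted to pH 2 then pH 4 with EDTA. Quantified by isotope dilution LC/ESI-MS/MS, positive or negative mode, five instrumental runs.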

[7] = design: method as in US EPA Chemistry Dashboard; details: ref US EPA Chemistry Dashboard; cited from earlier work

## Cc1ccc(C)c(OCCCC(C)(C)C(=O)O)c1 [Gemfibrozil]
In vivo; CPM1, 07-2014, pooled plasma, wet weight
  plasma concentration, CPM1 caged: 0.15 ng/g
In vivo; CPM3, 07-2014, pooled plasma, wet weight
  plasma concentration, CPM3 caged: 0.15 ng/g
In vivo; in vivo, plasma concentration, JH caged, Jordan Harbour reference site, 07-2014, pooled plasma, wet weight
  concentration at 21 days: < 0.3 ng/g
In vivo; plasma, caged goldfish plasma, range of concentrations, Cootes Paradise Marsh, range
  concentration at 21 days: 0.15 to 0.86 ng/g
In vivo; plasma, plasma concentration, CPM1 caged, CPM1, 07-2014, pooled plasma, wet weight
  concentration at 21 days: 0.147 ng/g
In vivo; plasma, plasma concentration, CPM2 caged, CPM2, 07-2014, pooled plasma, wet weight
  concentration at 21 days: 0.146 ng/g
In vivo; plasma, plasma concentration, CPM3 caged, CPM3, 07-2014, pooled plasma, wet weight
  concentration at 21 days: 0.154 ng/g
Cootes Paradise Marsh, range
  Cootes carp plasma, range of concentrations: 0.16 to 0.83 ng/g
  wild goldfish plasma, range of concentrations: 0.15–0.15 ng/g
Cootes carp 01, 2011, male, wet weight
  plasma concentration, CPM-C 01: 0.158 ng/g
Cootes carp 2, Sep 27, 2011, male, wet weight
  plasma concentration, CPM-C 2: 0.724 ng/g
Cootes carp 10, Sep 28, 2011, female, wet weight
  plasma concentration, CPM-C 10: 0.227 ng/g
Cootes carp 13, Sep 28, 2011, female, wet weight
  plasma concentration, CPM-C 13: 0.234 ng/g
Cootes carp 20, 2011, male, wet weight
  plasma concentration, CPM-C 20: 0.162 ng/g
Cootes carp 36, Oct 3, 2011, female, wet weight
  plasma concentration, CPM-C 36: 0.827 ng/g
Table S7
  Carp plasma concentration, this study (range): 0.16 to 0.83 ng/g
  Goldfish plasma concentration, this study (range): 0.15 to 0.86 ng/g
Table S8
  plasma concentration, carp, this study (mean): 0.39 ng/g wet weight or ng/mL for plasma
  plasma concentration, goldfish, this study (mean): 0.46 ng/g wet weight or ng/mL for plasma
Wild goldfish sample 01, 2012, wet weight
  plasma concentration, CPM wild-01: 0.147 ng/g
Wild goldfish sample 02, 2012, wet weight
  plasma concentration, CPM wild-02: 0.387 ng/g
Wild goldfish sample 03, 2012, wet weight
  plasma concentration, CPM wild-03: 0.86 ng/g
[1]
  BAFP, CPM2 goldfish caged: 27 L/kg
[2]; Table S7, ref Meador et al. (2016)
  Salmon (whole body) concentration: 1.3 ng/g
[2]; ref Meador et al. 18
  whole fish concentration, salmon: 1.3 ng/g wet weight or ng/mL for plasma
[3]
  plasma concentration, rainbow trout: <8-210 ng/g wet weight or ng/mL for plasma
[4]
  whole fish concentration, sculpin: < mdl
[5]
  Therapeutic "normal" blood-plasma/serum concentration: ~25000 ng/mL
[6]
  plasma concentration, JH-BB: < 0.57 ng/g
[7]
  log Kow: 4.14
